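Abbreviation: GI50, concentration required for 50% inhibition of growth. TGI marks complete inhibition of growth.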
Key:
Experiment in all cases: NCI-60 cell line screen, 384-well format
[1] = tested on: UACC-62 melanoma
[2] = tested on: SNB-19 CNS
[3] = tested on: SNB-75 CNS
[4] = tested on: LOX IMVI melanoma
[5] = tested on: HL-60(TB) leukemia
[6] = tested on: SW-620 colon
[7] = tested on: EKVX NSCLC
[8] = tested on: UACC-257 melanoma
[9] = tested on: SF-295 CNS
[10] = tested on: IGROV1 ovarian
[11] = tested on: HT29 colon
[12] = tested on: HOP-92 NSCLC
[13] = tested on: RXF 393 renal
[14] = tested on: CAKI-1 renal
[15] = tested on: SK-MEL-28 melanoma
[16] = tested on: MDA-MB-468 breast
[17] = tested on: OVCAR-8 ovarian
[18] = tested on: SN12C renal
[19] = tested on: MCF7 breast
[20] = tested on: NCI-H522 lung
[21] = tested on: MDA-MB-435 melanoma
[22] = tested on: KM12 colon
[23] = tested on: NCI-H226 lung
[24] = tested on: HOP-62 NSCLC
[25] = tested on: ACHN renal
[26] = tested on: MOLT-4 leukemia
[27] = tested on: NCI/ADR-RES ovarian
[28] = tested on: U251 glioblastoma

For CC(C)NC(=O)OCc1c(COC(=O)NC(C)C)c(-c2ccc(Cl)c(Cl)c2)n2c1SCC2, the TGI [1] was 4.98 µM, the GI50 [2] was 9.07 µM and the TGI [2] was 27.7 µM. The GI50 [3] was 2.27 µM, the TGI [3] was 12.7 µM and the GI50 [4] was 1.84 µM. For the same molecule, the TGI [4] was 13.6 µM, the GI50 [5] was 1.27 µM and the TGI [5] was 2.58 µM. For the same molecule, the GI50 [6] was 5.81 µM, the TGI [6] was 19.6 µM and the GI50 [7] was 13.1 µM. For the same molecule, the TGI [7] was 26.7 µM, the GI50 [8] was 10.2 µM and the TGI [8] was 22.4 µM. It also gave a GI50 [9] of 3.18 µM, a TGI [9] of 10.1 µM and a GI50 [10] of 1.25 µM. The TGI [10] was 4.55 µM, the GI50 [11] was 10.4 µM and the TGI [11] was 25 µM. The GI50 [12] was 2.58 µM, the TGI [12] was 11.4 µM and the GI50 [13] was 2.64 µM. For the same molecule, the TGI [13] was 10.5 µM, the GI50 [14] was 1.48 µM and the TGI [14] was 3.44 µM. For the same molecule, the GI50 [15] was 12.7 µM, the TGI [15] was 26.1 µM and the GI50 [16] was 0.0344 µM. It also gave a TGI [16] of 0.936 µM, a GI50 [17] of 5.97 µM and a TGI [17] of 19.1 µM. It also gave a GI50 [18] of 3.88 µM, a TGI [18] of 14.1 µM and a GI50 [19] of 4.21 µM. For the same molecule, the TGI [19] was 27 µM, the GI50 [20] was 2.09 µM and the TGI [20] was 13.8 µM. For the same molecule, the GI50 [21] was 13 µM, the TGI [21] was 25.8 µM and the GI50 [22] was 7.21 µM. For the same molecule, the TGI [22] was 21.6 µM, the GI50 [23] was 0.85 µM and the TGI [23] was 2.35 µM. It also gave a GI50 [24] of 1.89 µM, a TGI [24] of 4.66 µM and a GI50 [25] of 2.31 µM. It also gave a TGI [25] of 7.85 µM, a GI50 [26] of 1.1 µM and a TGI [26] of 2.3 µM. It also gave a GI50 [27] of 3 µM, a TGI [27] of 13.2 µM and a GI50 [28] of 5.16 µM. It also gave a TGI [28] of 18.4 µM.

— PubChem BioAssay (NCI)
